# Test results as given in PubChem BioAssay (NCI).
#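 At the GI50, growth is halved. TGI marks complete inhibition of growth.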
# Columns and labels:
# Test in all cases: DTP human tumour cell line panel, 384-well format
# NCI-H522 lung = tested on: NCI-H522 lung
# HL-60(TB) leukemia = tested on: HL-60(TB) leukemia
# NCI/ADR-RES ovarian = tested on: NCI/ADR-RES ovarian
# LOX IMVI melanoma = tested on: LOX IMVI melanoma
# SW-620 colon = tested on: SW-620 colon
# CAKI-1 renal = tested on: CAKI-1 renal
# RXF 393 renal = tested on: RXF 393 renal
# HOP-92 NSCLC = tested on: HOP-92 NSCLC
# OVCAR-3 ovarian = tested on: OVCAR-3 ovarian
# OVCAR-4 ovarian = tested on: OVCAR-4 ovarian
# 786-0 renal = tested on: 786-0 renal
# PC-3 prostate = tested on: PC-3 prostate
# A549 NSCLC = tested on: A549 NSCLC
# MDA-MB-435 melanoma = tested on: MDA-MB-435 melanoma
# SR leukemia = tested on: SR leukemia
# SF-295 CNS = tested on: SF-295 CNS
# SF-268 CNS = tested on: SF-268 CNS
# MDA-MB-231 breast = tested on: MDA-MB-231 breast
# MALME-3M melanoma = tested on: MALME-3M melanoma
# EKVX NSCLC = tested on: EKVX NSCLC
# IGROV1 ovarian = tested on: IGROV1 ovarian
# MDA-MB-468 breast = tested on: MDA-MB-468 breast
# NCI-H460 NSCLC = tested on: NCI-H460 NSCLC
# SNB-75 CNS = tested on: SNB-75 CNS
# UACC-62 melanoma = tested on: UACC-62 melanoma
# HS 578T breast = tested on: HS 578T breast
# RPMI-8226 leukemia = tested on: RPMI-8226 leukemia
# T-47D breast = tested on: T-47D breast
# OVCAR-5 ovarian = tested on: OVCAR-5 ovarian
# CCRF-CEM leukemia = tested on: CCRF-CEM leukemia
# K-562 leukemia = tested on: K-562 leukemia
# SF-539 CNS = tested on: SF-539 CNS
# HCT-15 colon = tested on: HCT-15 colon
# HT29 colon = tested on: HT29 colon
# KM12 colon = tested on: KM12 colon
# HOP-62 NSCLC = tested on: HOP-62 NSCLC
# BT-549 breast = tested on: BT-549 breast
# UO-31 renal = tested on: UO-31 renal
# NCI-H226 lung = tested on: NCI-H226 lung
# SK-OV-3 ovarian = tested on: SK-OV-3 ovarian
# HCC-2998 colon = tested on: HCC-2998 colon
# UACC-257 melanoma = tested on: UACC-257 melanoma
# NCI-H322M lung = tested on: NCI-H322M lung
# SK-MEL-28 melanoma = tested on: SK-MEL-28 melanoma
# M14 melanoma = tested on: M14 melanoma
# U251 glioblastoma = tested on: U251 glioblastoma
# COLO 205 colon = tested on: COLO 205 colon
# SN12C renal = tested on: SN12C renal
# MOLT-4 leukemia = tested on: MOLT-4 leukemia
# SK-MEL-5 melanoma = tested on: SK-MEL-5 melanoma
# NCI-H23 lung = tested on: NCI-H23 lung
# SNB-19 CNS = tested on: SNB-19 CNS
compound,measurement,setting,value
CN1C/C=C/CCOc2cccc(c2)-c2ccnc(n2)Nc2cccc(c2)C1,GI50,NCI-H522 lung,59.8 nM
same,TGI,NCI-H522 lung,227 nM
same,GI50,HL-60(TB) leukemia,16 nM
same,TGI,HL-60(TB) leukemia,29.8 nM
same,GI50,NCI/ADR-RES ovarian,34.2 nM
same,TGI,NCI/ADR-RES ovarian,124 nM
same,GI50,LOX IMVI melanoma,18.5 nM
same,TGI,LOX IMVI melanoma,35.7 nM
same,GI50,SW-620 colon,38.1 nM
same,TGI,SW-620 colon,279 nM
same,GI50,CAKI-1 renal,30.1 nM
same,TGI,CAKI-1 renal,1140 nM
same,GI50,RXF 393 renal,19.2 nM
same,TGI,RXF 393 renal,35.4 nM
same,GI50,HOP-92 NSCLC,44.3 nM
same,TGI,HOP-92 NSCLC,3560 nM
same,GI50,OVCAR-3 ovarian,22.9 nM
same,TGI,OVCAR-3 ovarian,60.3 nM
same,TGI,OVCAR-4 ovarian,602 nM
same,GI50,786-0 renal,37 nM
same,TGI,786-0 renal,224 nM
same,GI50,PC-3 prostate,31.1 nM
same,TGI,PC-3 prostate,94.9 nM
same,GI50,A549 NSCLC,35.2 nM
same,TGI,A549 NSCLC,1090 nM
same,GI50,MDA-MB-435 melanoma,29.2 nM
same,TGI,MDA-MB-435 melanoma,88.9 nM
same,TGI,SR leukemia,14.9 nM
same,GI50,SF-295 CNS,34 nM
same,TGI,SF-295 CNS,504 nM
same,GI50,SF-268 CNS,22.9 nM
same,TGI,SF-268 CNS,67.8 nM
same,GI50,MDA-MB-231 breast,51.5 nM
same,TGI,MDA-MB-231 breast,296 nM
same,GI50,MALME-3M melanoma,33.5 nM
same,TGI,MALME-3M melanoma,88.3 nM
same,GI50,EKVX NSCLC,50.2 nM
same,TGI,EKVX NSCLC,192 nM
same,TGI,IGROV1 ovarian,128 nM
same,GI50,MDA-MB-468 breast,42.7 nM
same,TGI,MDA-MB-468 breast,147 nM
same,GI50,NCI-H460 NSCLC,19.9 nM
same,TGI,NCI-H460 NSCLC,41.9 nM
same,GI50,SNB-75 CNS,26 nM
same,TGI,SNB-75 CNS,65.9 nM
same,GI50,UACC-62 melanoma,18.6 nM
same,TGI,UACC-62 melanoma,45.4 nM
same,GI50,HS 578T breast,18.7 nM
same,TGI,HS 578T breast,43.3 nM
same,GI50,RPMI-8226 leukemia,23.7 nM
same,TGI,RPMI-8226 leukemia,50.6 nM
same,GI50,T-47D breast,41.6 nM
same,TGI,T-47D breast,1200 nM
same,GI50,OVCAR-5 ovarian,29.4 nM
same,TGI,OVCAR-5 ovarian,7380 nM
same,GI50,CCRF-CEM leukemia,18.7 nM
same,TGI,CCRF-CEM leukemia,35.5 nM
same,GI50,K-562 leukemia,71 nM
same,TGI,K-562 leukemia,307 nM
same,GI50,SF-539 CNS,25.2 nM
same,TGI,SF-539 CNS,62.6 nM
same,GI50,HCT-15 colon,30.1 nM
same,TGI,HCT-15 colon,119 nM
same,GI50,HT29 colon,36.5 nM
same,TGI,HT29 colon,203 nM
same,GI50,KM12 colon,26 nM
same,TGI,KM12 colon,74.7 nM
same,GI50,HOP-62 NSCLC,21.6 nM
same,TGI,HOP-62 NSCLC,49.4 nM
same,GI50,BT-549 breast,23.5 nM
same,TGI,BT-549 breast,50.2 nM
same,GI50,UO-31 renal,20.6 nM
same,TGI,UO-31 renal,40.7 nM
same,GI50,NCI-H226 lung,26.9 nM
same,TGI,NCI-H226 lung,86 nM
same,GI50,SK-OV-3 ovarian,65.3 nM
same,TGI,SK-OV-3 ovarian,1140 nM
same,GI50,HCC-2998 colon,32.5 nM
same,TGI,HCC-2998 colon,219 nM
same,GI50,UACC-257 melanoma,58.2 nM
same,TGI,UACC-257 melanoma,208 nM
same,GI50,NCI-H322M lung,30.1 nM
same,TGI,NCI-H322M lung,90.6 nM
same,GI50,SK-MEL-28 melanoma,25.7 nM
same,TGI,SK-MEL-28 melanoma,86.5 nM
same,GI50,M14 melanoma,37.7 nM
same,TGI,M14 melanoma,118 nM
same,GI50,U251 glioblastoma,34 nM
same,TGI,U251 glioblastoma,520 nM
same,GI50,COLO 205 colon,24.7 nM
same,TGI,COLO 205 colon,57.8 nM
same,GI50,SN12C renal,27.6 nM
same,TGI,SN12C renal,90.3 nM
same,GI50,MOLT-4 leukemia,19.8 nM
same,TGI,MOLT-4 leukemia,37.2 nM
same,GI50,SK-MEL-5 melanoma,22 nM
same,TGI,SK-MEL-5 melanoma,53.6 nM
same,TGI,NCI-H23 lung,106 nM
same,GI50,SNB-19 CNS,41.1 nM
same,TGI,SNB-19 CNS,1600 nM
